US20250230193A1, “CYCLIC COMPOUND HAVING SELECTIVE KRAS INHIBITORY EFFECT ON HRAS AND NRAS” (CHUGAI SEIYAKU KABUSHIKI KAISHA, priority 2022, published 2025)

Tests used:
[1] = system: human lung cancer strain NCI-H441; test: cells; conditions: NCI-H441, 96 h, read-out: NCI-H441 IC50 (nM)
[2] = molecular target: GDP-bound HRAS wild-type protein (Homo sapiens, UniProt P01112); test: Binding to HRAS by surface plasmon resonance (SPR), Single Cycle Kinetics; conditions: SPR; KD ratio class
[3] = molecular target: GDP-bound NRAS wild-type protein (Homo sapiens, UniProt P01111); test: Binding to NRAS by surface plasmon resonance (SPR), Single Cycle Kinetics; conditions: SPR; KD ratio class
Sequence of GDP-bound NRAS wild-type protein (P01111 whole entry): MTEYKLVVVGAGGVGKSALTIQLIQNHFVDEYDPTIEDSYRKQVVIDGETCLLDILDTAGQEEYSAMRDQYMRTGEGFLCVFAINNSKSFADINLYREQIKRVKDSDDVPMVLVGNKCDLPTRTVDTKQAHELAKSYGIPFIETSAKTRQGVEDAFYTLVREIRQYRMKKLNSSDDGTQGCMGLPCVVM

Sequence of GDP-bound HRAS wild-type protein (P01112 whole entry): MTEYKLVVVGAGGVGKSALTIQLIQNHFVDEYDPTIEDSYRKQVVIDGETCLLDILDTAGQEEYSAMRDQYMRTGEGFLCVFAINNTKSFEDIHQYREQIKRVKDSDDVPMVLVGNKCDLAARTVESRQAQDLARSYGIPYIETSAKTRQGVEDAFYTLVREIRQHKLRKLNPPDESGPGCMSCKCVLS

Row | Structure (SMILES) | IC50 [1] | HRAS/KRAS (ratio of KD value for GDP-bound HRAS wild-type protein to KD value for KRAS) [2] | NRAS/KRAS (ratio of KD value for GDP-bound NRAS wild-type protein to KD value for KRAS) [3]
1 | CCO[C@@H]1C[C@H]2C(=O)NC3(CCC3)C(=O)N(C)[C@@H](C3CCCC3)C(=O)N(C)[C@H](C(=O)N3CCOCC3)CC(=O)N(C)[C@@H](CC)C(=O)N[C@@H]([C@@H](C)CC)C(=O)N3CC[C@H]3C(=O)N(C)[C@H]3C[C@@H](C)[C@@H](C)CN(C3=O)[C@@H](Cc3ccc(C(F)(F)F)cc3)C(=O)N(C)CC(=O)N[C@@H](CCc3cc(F)c(C(F)(F)F)c(F)c3)C(=O)N2C1 [PP1351] | 12.8 nM | B (a compound having 3 or more and less than 10 is denoted as B) | A (a compound having 10 or more and less than 20 is denoted as A)
2 | CCO[C@@H]1C[C@H]2C(=O)NC3(CCCC3)C(=O)N(C)[C@@H](C3CCCC3)C(=O)N(C)[C@H](C(=O)N(C)C)CC(=O)N(C)[C@@H](CC)C(=O)N[C@@H]([C@@H](C)CC)C(=O)N(C)CC(=O)N(C)[C@H]3C[C@@H](C)[C@@H](C)CN(C3=O)[C@@H](Cc3ccc(C(F)(F)F)cc3)C(=O)N(C)CC(=O)N[C@@H](CCc3cc(F)c(C(F)(F)F)c(F)c3)C(=O)N2C1 [PP1352] | 4.6 nM | B (a compound having 3 or more and less than 10 is denoted as B) | A (a compound having 10 or more and less than 20 is denoted as A)
3 | CCO[C@@H]1C[C@H]2C(=O)NC3(CCCC3)C(=O)N(C)[C@@H](C3CCCC3)C(=O)N(C)[C@H](C(=O)N3CCOCC3)CC(=O)N(C)[C@@H](CC)C(=O)N[C@@H]([C@@H](C)CC)C(=O)N(C)CC(=O)N(C)[C@H]3C[C@@H](C)[C@@H](C)CN(C3=O)[C@@H](Cc3ccc(C(F)(F)F)cc3)C(=O)N(C)CC(=O)N[C@@H](CCc3cc(F)c(C(F)(F)F)c(F)c3)C(=O)N2C1 [PP1353] | 3.7 nM | B (a compound having 3 or more and less than 10 is denoted as B) | A (a compound having 10 or more and less than 20 is denoted as A)
4 | CCO[C@@H]1C[C@H]2C(=O)NC3(CCC3)C(=O)N(C)[C@@H](C3CCCC3)C(=O)N(C)[C@H](C(=O)N3CCOCC3)CC(=O)N(C)[C@@H](CC)C(=O)N[C@@H]([C@@H](C)CC)C(=O)N(C)CC(=O)N(C)[C@H]3C[C@@H](C)[C@@H](C)CN(C3=O)[C@@H](Cc3ccc(C(F)(F)F)cc3)C(=O)N(C)CC(=O)N[C@@H](CCc3cc(F)c(C(F)(F)F)c(F)c3)C(=O)N2C1 [PP1354] | 3.6 nM | B (a compound having 3 or more and less than 10 is denoted as B) | A (a compound having 10 or more and less than 20 is denoted as A)
5 | CCO[C@@H]1C[C@H]2C(=O)NC3(CCC3)C(=O)N(C)[C@@H](C3CCCC3)C(=O)N(C)[C@H](C(=O)N3CCOCC3)CC(=O)N(C)[C@@H](CC(C)C)C(=O)N[C@@H]([C@@H](C)CC)C(=O)N3CC[C@H]3C(=O)N(C)[C@H]3C[C@@H](C)[C@@H](C)CN(C3=O)[C@@H](Cc3ccc(C(F)(F)F)cc3)C(=O)N(C)CC(=O)N[C@@H](CCc3cc(F)c(C(F)(F)F)c(F)c3)C(=O)N2C1 [PP1355] | 10.2 nM | B (a compound having 3 or more and less than 10 is denoted as B) | A (a compound having 10 or more and less than 20 is denoted as A)
6 | CCO[C@@H]1C[C@H]2C(=O)NC3(CCCC3)C(=O)N(C)[C@@H](C3CCCC3)C(=O)N(C)[C@H](C(=O)N(C)C)CC(=O)N(C)[C@@H](CC3CC3)C(=O)N[C@@H]([C@@H](C)CC)C(=O)N(C)CC(=O)N(C)[C@H]3C[C@@H](C)[C@@H](C)CN(C3=O)[C@@H](Cc3ccc(C(F)(F)F)cc3)C(=O)N(C)CC(=O)N[C@@H](CCc3cc(F)c(C(F)(F)F)c(F)c3)C(=O)N2C1 [PP1356] | 3.3 nM | B (a compound having 3 or more and less than 10 is denoted as B) | B (a compound having 3 or more and less than 10 is denoted as B)
7 | CCO[C@@H]1C[C@H]2C(=O)NC3(CCC3)C(=O)N(C)[C@@H](C3CCCC3)C(=O)N(C)[C@H](C(=O)N3CCOCC3)CC(=O)N(C)[C@@H](CC)C(=O)N[C@@H]([C@@H](C)CC)C(=O)N3CC[C@H]3C(=O)N(C)[C@H]3C[C@@H](C)[C@@H](C)CN(C3=O)[C@@H](Cc3ccc(C(F)(F)F)cc3)C(=O)N(C)CC(=O)N[C@@H](CCc3ccc(C(F)(F)F)c(Cl)c3)C(=O)N2C1 [PP1357] | 5.4 nM | B (a compound having 3 or more and less than 10 is denoted as B) | A (a compound having 10 or more and less than 20 is denoted as A)
8 | CCO[C@@H]1C[C@H]2C(=O)NC3(CCCC3)C(=O)N(C)[C@@H](C3CCCC3)C(=O)N(C)[C@H](C(=O)N(C)C)CC(=O)N(C)[C@@H](CC)C(=O)N[C@@H]([C@@H](C)CC)C(=O)N(C)CC(=O)N(C)[C@H]3C[C@@H](C)[C@@H](C)CN(C3=O)[C@@H](Cc3ccc(C(F)(F)F)cc3)C(=O)N(C)CC(=O)N[C@@H](CCc3ccc(C(F)(F)F)c(Cl)c3)C(=O)N2C1 [PP1358] | 4.1 nM | B (a compound having 3 or more and less than 10 is denoted as B) | A (a compound having 10 or more and less than 20 is denoted as A)
9 | CCO[C@@H]1C[C@H]2C(=O)NC3(CCCC3)C(=O)N(C)[C@@H](C3CCCC3)C(=O)N(C)[C@H](C(=O)N3CCOCC3)CC(=O)N(C)[C@@H](CC)C(=O)N[C@@H]([C@@H](C)CC)C(=O)N(C)CC(=O)N(C)[C@H]3C[C@@H](C)[C@@H](C)CN(C3=O)[C@@H](Cc3ccc(C(F)(F)F)cc3)C(=O)N(C)CC(=O)N[C@@H](CCc3ccc(C(F)(F)F)c(Cl)c3)C(=O)N2C1 [PP1359] | 3.2 nM | B (a compound having 3 or more and less than 10 is denoted as B) | A (a compound having 10 or more and less than 20 is denoted as A)

Continued, in another order:

Row | IC50 [1] | Structure (SMILES) | HRAS/KRAS (ratio of KD value for GDP-bound HRAS wild-type protein to KD value for KRAS) [2] | NRAS/KRAS (ratio of KD value for GDP-bound NRAS wild-type protein to KD value for KRAS) [3]
10 | 4.9 nM | CCO[C@@H]1C[C@H]2C(=O)NC3(CCC3)C(=O)N(C)[C@@H](C3CCCC3)C(=O)N(C)[C@H](C(=O)N3CCOCC3)CC(=O)N(C)[C@@H](CC)C(=O)N[C@@H]([C@@H](C)CC)C(=O)N(C)CC(=O)N(C)[C@H]3C[C@@H](C)[C@@H](C)CN(C3=O)[C@@H](Cc3ccc(C(F)(F)F)cc3)C(=O)N(C)CC(=O)N[C@@H](CCc3ccc(C(F)(F)F)c(Cl)c3)C(=O)N2C1 [PP1360] | B (a compound having 3 or more and less than 10 is denoted as B) | A (a compound having 10 or more and less than 20 is denoted as A)
11 | 6.2 nM | CCO[C@@H]1C[C@H]2C(=O)NC3(CCC3)C(=O)N(C)[C@@H](C3CCCC3)C(=O)N(C)[C@H](C(=O)N3CCOCC3)CC(=O)N(C)[C@@H](CC(C)C)C(=O)N[C@@H]([C@@H](C)CC)C(=O)N3CC[C@H]3C(=O)N(C)[C@H]3C[C@@H](C)[C@@H](C)CN(C3=O)[C@@H](Cc3ccc(C(F)(F)F)cc3)C(=O)N(C)CC(=O)N[C@@H](CCc3ccc(C(F)(F)F)c(Cl)c3)C(=O)N2C1 [PP1361] | B (a compound having 3 or more and less than 10 is denoted as B) | A (a compound having 10 or more and less than 20 is denoted as A)
12 | 3.7 nM | CCO[C@@H]1C[C@H]2C(=O)NC3(CCCC3)C(=O)N(C)[C@@H](C3CCCC3)C(=O)N(C)[C@H](C(=O)N(C)C)CC(=O)N(C)[C@@H](CC3CC3)C(=O)N[C@@H]([C@@H](C)CC)C(=O)N(C)CC(=O)N(C)[C@H]3C[C@@H](C)[C@@H](C)CN(C3=O)[C@@H](Cc3ccc(C(F)(F)F)cc3)C(=O)N(C)CC(=O)N[C@@H](CCc3ccc(C(F)(F)F)c(Cl)c3)C(=O)N2C1 [PP1362] | B (a compound having 3 or more and less than 10 is denoted as B) | A (a compound having 10 or more and less than 20 is denoted as A)
13 | 7.1 nM | CC[C@H](C)[C@@H]1NC(=O)[C@H](CC)N(C)C(=O)C[C@@H](C(=O)N(C)C)N(C)C(=O)[C@H](C2CCCC2)N(C)C(=O)C2(CCCC2)NC(=O)[C@@H]2CCCN2C(=O)[C@H](CCc2cc(F)c(C(F)(F)F)c(F)c2)NC(=O)CN(C)C(=O)[C@H](Cc2ccc(C(F)(F)F)cc2)N2C[C@H](C)[C@H](C)C[C@@H](C2=O)N(C)C(=O)CN(C)C1=O [PP1364] | B (a compound having 3 or more and less than 10 is denoted as B) | A (a compound having 10 or more and less than 20 is denoted as A)
14 | 4.2 nM | CC[C@H](C)[C@@H]1NC(=O)[C@H](CC)N(C)C(=O)C[C@@H](C(=O)N2CCOCC2)N(C)C(=O)[C@H](C2CCCC2)N(C)C(=O)C2(CCCC2)NC(=O)[C@@H]2CCCN2C(=O)[C@H](CCc2cc(F)c(C(F)(F)F)c(F)c2)NC(=O)CN(C)C(=O)[C@H](Cc2ccc(C(F)(F)F)cc2)N2C[C@H](C)[C@H](C)C[C@@H](C2=O)N(C)C(=O)CN(C)C1=O [PP1365] | B (a compound having 3 or more and less than 10 is denoted as B) | A (a compound having 10 or more and less than 20 is denoted as A)
15 | 14 nM | CC[C@H](C)[C@@H]1NC(=O)[C@H](CC)N(C)C(=O)C[C@@H](C(=O)N2CCOCC2)N(C)C(=O)[C@H](C2CCCC2)N(C)C(=O)C2(CCC2)NC(=O)[C@@H]2CCCN2C(=O)[C@H](CCc2cc(F)c(C(F)(F)F)c(F)c2)NC(=O)CN(C)C(=O)[C@H](Cc2ccc(C(F)(F)F)cc2)N2C[C@H](C)[C@H](C)C[C@@H](C2=O)N(C)C(=O)CN(C)C1=O [PP1366] | B (a compound having 3 or more and less than 10 is denoted as B) | A (a compound having 10 or more and less than 20 is denoted as A)
